Measurements reported in ChEMBL document CHEMBL3044826, “Design, synthesis and biological evaluation of some novel substituted 2-mercapto-3-phenethylquinazolines as antitumor agents” (2013).

Tests used:
Type in all cases: functional
MDA-MB-231 = assay: Cytotoxicity against Homo sapiens (human) MDA-MB-231 cells assessed as growth inhibition at 10 uM after 48 hr by coulter counter analysis; conditions: MDA-MB-231, 48 h, read-out: GI
SW-620 = assay: Cytotoxicity against Homo sapiens (human) SW620 cells assessed as growth inhibition at 10 uM after 48 hr by coulter counter analysis; conditions: SW-620, 48 h, read-out: GI
BT-549 = assay: Cytotoxicity against Homo sapiens (human) BT549 cells assessed as growth inhibition at 10 uM after 48 hr by coulter counter analysis; conditions: BT-549, 48 h, read-out: GI
SNB-75 = assay: Cytotoxicity against Homo sapiens (human) SNB75 cells assessed as growth inhibition at 10 uM after 48 hr by coulter counter analysis; conditions: SNB-75, 48 h, read-out: GI
SNB-19 = assay: Cytotoxicity against Homo sapiens (human) SNB19 cells assessed as growth inhibition at 10 uM after 48 hr by coulter counter analysis; conditions: SNB-19, 48 h, read-out: GI
MCF7 = assay: Cytotoxicity against Homo sapiens (human) MCF7 cells assessed as growth inhibition at 10 uM after 48 hr by coulter counter analysis; conditions: MCF7, 48 h, read-out: GI
COLO 205 = assay: Cytotoxicity against Homo sapiens (human) COLO205 cells assessed as growth inhibition at 10 uM after 48 hr by coulter counter analysis; conditions: COLO 205, 48 h, read-out: GI
SF-295 = assay: Cytotoxicity against Homo sapiens (human) SF295 cells assessed as growth inhibition at 10 uM after 48 hr by coulter counter analysis; conditions: SF-295, 48 h, read-out: GI
NCI-H322M = assay: Cytotoxicity against Homo sapiens (human) NCI-H322M cells assessed as growth inhibition at 10 uM after 48 hr by coulter counter analysis; conditions: read-out: GI
PC-3 = assay: Cytotoxicity against Homo sapiens (human) PC3 cells assessed as growth inhibition at 10 uM after 48 hr by coulter counter analysis; conditions: PC-3, 48 h, read-out: GI
UO-31 = assay: Cytotoxicity against Homo sapiens (human) UO31 cells assessed as growth inhibition at 10 uM after 48 hr by coulter counter analysis; conditions: UO-31, 48 h, read-out: GI
HCT-116 = assay: Cytotoxicity against Homo sapiens (human) HCT116 cells assessed as growth inhibition at 10 uM after 48 hr by coulter counter analysis; conditions: HCT-116, 48 h, read-out: GI
A498 = assay: Cytotoxicity against Homo sapiens (human) A498 cells assessed as growth inhibition at 10 uM after 48 hr by coulter counter analysis; conditions: A498, 48 h, read-out: GI
HT-29 = assay: Cytotoxicity against Homo sapiens (human) HT-29 cells assessed as growth inhibition at 10 uM after 48 hr by coulter counter analysis; conditions: HT-29, 48 h, read-out: GI
SK-MEL-5 = assay: Cytotoxicity against Homo sapiens (human) SK-MEL-5 cells assessed as growth inhibition at 10 uM after 48 hr by coulter counter analysis; conditions: SK-MEL-5, 48 h, read-out: GI
DU-145 = assay: Cytotoxicity against Homo sapiens (human) DU145 cells assessed as growth inhibition at 10 uM after 48 hr by coulter counter analysis; conditions: DU-145, 48 h, read-out: GI
TK-10 = assay: Cytotoxicity against Homo sapiens (human) TK10 cells assessed as growth inhibition at 10 uM after 48 hr by coulter counter analysis; conditions: TK-10, 48 h, read-out: GI
RXF 393 = assay: Cytotoxicity against Homo sapiens (human) RXF393 cells assessed as growth inhibition at 10 uM after 48 hr by coulter counter analysis; conditions: RXF 393, 48 h, read-out: GI
OVCAR-3 = assay: Cytotoxicity against Homo sapiens (human) OVCAR3 cells assessed as growth inhibition at 10 uM after 48 hr by coulter counter analysis; conditions: OVCAR-3, 48 h, read-out: GI
MDA-MB-435 = assay: Cytotoxicity against Homo sapiens (human) MDA-MB-435 cells assessed as growth inhibition at 10 uM after 48 hr by coulter counter analysis; conditions: MDA-MB-435, 48 h, read-out: GI
SN12C = assay: Cytotoxicity against Homo sapiens (human) SN12C cells assessed as growth inhibition at 10 uM after 48 hr by coulter counter analysis; conditions: read-out: GI
SK-MEL-28 = assay: Cytotoxicity against Homo sapiens (human) SK-MEL-28 cells assessed as growth inhibition at 10 uM after 48 hr by coulter counter analysis; conditions: SK-MEL-28, 48 h, read-out: GI
SK-OV-3 = assay: Cytotoxicity against Homo sapiens (human) SKOV3 cells assessed as growth inhibition at 10 uM after 48 hr by coulter counter analysis; conditions: SK-OV-3, 48 h, read-out: GI
HCT-15 = assay: Cytotoxicity against Homo sapiens (human) HCT15 cells assessed as growth inhibition at 10 uM after 48 hr by coulter counter analysis; conditions: HCT-15, 48 h, read-out: GI
LOX IMVI = assay: Cytotoxicity against Homo sapiens (human) LOXIMVI cells assessed as growth inhibition at 10 uM after 48 hr by coulter counter analysis; conditions: read-out: GI
A549 = assay: Cytotoxicity against Homo sapiens (human) A549 cells assessed as growth inhibition at 10 uM after 48 hr by coulter counter analysis; conditions: A549, 48 h, read-out: GI
IGROV-1 = assay: Cytotoxicity against Homo sapiens (human) IGROV1 cells assessed as growth inhibition at 10 uM after 48 hr by coulter counter analysis; conditions: IGROV-1, 48 h, read-out: GI
HOP-62 = assay: Cytotoxicity against Homo sapiens (human) HOP62 cells assessed as growth inhibition at 10 uM after 48 hr by coulter counter analysis; conditions: HOP-62, 48 h, read-out: GI
SF-539 = assay: Cytotoxicity against Homo sapiens (human) SF539 cells assessed as growth inhibition at 10 uM after 48 hr by coulter counter analysis; conditions: SF-539, 48 h, read-out: GI
CAKI-1 = assay: Cytotoxicity against Homo sapiens (human) Caki1 cells assessed as growth inhibition at 10 uM after 48 hr by coulter counter analysis; conditions: CAKI-1, 48 h, read-out: GI
MDA-MB-468 = assay: Cytotoxicity against Homo sapiens (human) MDA-MB-468 cells assessed as growth inhibition at 10 uM after 48 hr by coulter counter analysis; conditions: MDA-MB-468, 48 h, read-out: GI
ACHN = assay: Cytotoxicity against Homo sapiens (human) ACHN cells assessed as growth inhibition at 10 uM after 48 hr by coulter counter analysis; conditions: read-out: GI
UACC-62 = assay: Cytotoxicity against Homo sapiens (human) UACC62 cells assessed as growth inhibition at 10 uM after 48 hr by coulter counter analysis; conditions: UACC-62, 48 h, read-out: GI
SF-268 = assay: Cytotoxicity against Homo sapiens (human) SF268 cells assessed as growth inhibition at 10 uM after 48 hr by coulter counter analysis; conditions: SF-268, 48 h, read-out: GI

SMILES	inhibition of growth at 10 µM (MDA-MB-231)	inhibition of growth at 10 µM (SW-620)	inhibition of growth at 10 µM (BT-549)	inhibition of growth at 10 µM (SNB-75)	inhibition of growth at 10 µM (SNB-19)	inhibition of growth at 10 µM (MCF7)	inhibition of growth at 10 µM (COLO 205)	inhibition of growth at 10 µM (SF-295)	inhibition of growth at 10 µM (NCI-H322M)	inhibition of growth at 10 µM (PC-3)	inhibition of growth at 10 µM (UO-31)	inhibition of growth at 10 µM (HCT-116)	inhibition of growth at 10 µM (A498)	inhibition of growth at 10 µM (HT-29)	inhibition of growth at 10 µM (SK-MEL-5)	inhibition of growth at 10 µM (DU-145)	inhibition of growth at 10 µM (TK-10)	inhibition of growth at 10 µM (RXF 393)	inhibition of growth at 10 µM (OVCAR-3)	inhibition of growth at 10 µM (MDA-MB-435)	other results
COc1ccc(-n2c(S)nnc2CSc2nc3ccccc3c(=O)n2CCc2ccccc2)cc1	20%	< 10%	< 10%	< 10%	< 10%	28%	< 10%	12%	< 10%	30%	30%	< 10%	51%	< 10%	24%	< 10%	< 10%	< 10%	< 10%	< 10%	inhibition of growth at 10 µM (SN12C): < 10%; inhibition of growth at 10 µM (SK-MEL-28): < 10%; inhibition of growth at 10 µM (SK-OV-3): < 10%; inhibition of growth at 10 µM (HCT-15): 25%; inhibition of growth at 10 µM (LOX IMVI): < 10%; inhibition of growth at 10 µM (A549): < 10%; inhibition of growth at 10 µM (IGROV-1): 16%; inhibition of growth at 10 µM (HOP-62): < 10%; inhibition of growth at 10 µM (SF-539): < 10%; inhibition of growth at 10 µM (CAKI-1): 17%; inhibition of growth at 10 µM (MDA-MB-468): 38%; inhibition of growth at 10 µM (ACHN): < 10%; inhibition of growth at 10 µM (UACC-62): 19%; inhibition of growth at 10 µM (SF-268): < 10%
O=c1c2ccccc2nc(SCc2nnc(S)n2Cc2ccccc2)n1CCc1ccccc1	28%	< 10%	< 10%	< 10%	< 10%	27%	< 10%	< 10%	< 10%	12%	< 10%	24%	< 10%	< 10%	< 10%	< 10%	< 10%	< 10%	< 10%	< 10%	inhibition of growth at 10 µM (SN12C): < 10%; inhibition of growth at 10 µM (SK-MEL-28): < 10%; inhibition of growth at 10 µM (SK-OV-3): < 10%; inhibition of growth at 10 µM (HCT-15): < 10%; inhibition of growth at 10 µM (LOX IMVI): 14%; inhibition of growth at 10 µM (A549): 12%; inhibition of growth at 10 µM (IGROV-1): < 10%; inhibition of growth at 10 µM (HOP-62): < 10%; inhibition of growth at 10 µM (SF-539): < 10%; inhibition of growth at 10 µM (CAKI-1): < 10%; inhibition of growth at 10 µM (MDA-MB-468): < 10%; inhibition of growth at 10 µM (ACHN): < 10%; inhibition of growth at 10 µM (UACC-62): 17%; inhibition of growth at 10 µM (SF-268): < 10%
O=C1c2ccccc2C(=O)N1CCCSc1nc2ccccc2c(=O)n1CCc1ccccc1	14%	< 10%	< 10%	< 10%	< 10%	< 10%	< 10%	< 10%	< 10%	51%	19%	21%	20%	13%	43%	< 10%	< 10%	< 10%	< 10%	< 10%	inhibition of growth at 10 µM (SN12C): < 10%; inhibition of growth at 10 µM (SK-MEL-28): < 10%; inhibition of growth at 10 µM (SK-OV-3): 12%; inhibition of growth at 10 µM (HCT-15): 31%; inhibition of growth at 10 µM (LOX IMVI): < 10%; inhibition of growth at 10 µM (A549): 18%; inhibition of growth at 10 µM (IGROV-1): < 10%; inhibition of growth at 10 µM (HOP-62): < 10%; inhibition of growth at 10 µM (SF-539): < 10%; inhibition of growth at 10 µM (CAKI-1): 34%; inhibition of growth at 10 µM (MDA-MB-468): < 10%; inhibition of growth at 10 µM (ACHN): < 10%; inhibition of growth at 10 µM (UACC-62): 26%; inhibition of growth at 10 µM (SF-268): < 10%
